Measurements published in US8466162B2, “5-alkynyl-pyridines” (Boehringer Ingelheim International GmbH, priority 2011, dated 2013).

Tests used:
[1] = tested on: MCF7 cells; test: alamarBlue MCF7 cell assay (antiproliferative/cytotoxicity); format: cell-based; conditions: MCF7 human breast cancer cell line
In short: (§1)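 After overnight plating of 3000 cells per well, compounds are applied as ten threefold dilutions (highest final 10 μM) in duplicate for 5-6 days. Viability is then gauged by an 8 h alamarBlue incubation and fluorescence readout, with EC50 calculated from medium-blank-corrected signals.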

[2] = tested on: H460 cells; test: alamarBlue H460 cell assay (antiproliferative/cytotoxicity); format: cell-based; conditions: NCI-H460; H460 human lung carcinoma cells
In short: as §1

[3] = tested on: BT474 cells; test: alamarBlue BT474 cell assay (antiproliferative/cytotoxicity); format: cell-based; conditions: BT-474 human breast cancer cell line, 5-6 days incubation
In short: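 Following 5-6 days of treatment across a duplicate 1:3 series (10 μM final maximum), wells received alamarBlue for 8 hours at 37° C before fluorescence measurement; EC50 was fitted. For BT474, 3000 cells were plated in IMDM with 5% FCS.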

[4] = tested on: MB453 cells; test: alamarBlue MB453 cell assay (antiproliferative/cytotoxicity); format: cell-based; conditions: Homo sapiens; MDA MB 453 breast cancer cell line
In short: as §1

[5] = biological target: T1, PI3Kalpha (Homo sapiens, UniProt P42336); test: Inhibition of PI3Kalpha-induced PIP-2 phosphorylation (filter-binding assay, 33P-ATP); format: biochemical; conditions: PI3 Kinase alpha (p85alpha/His-p110alpha), 1 μM ATP; read-out: IC50 PI3Kα
T1 construct: His (N); made in house; host or cells: SF9 insect cells (baculovirus co-infection)

[6] = tested on: U87 cells; test: alamarBlue U87 cell assay (antiproliferative/cytotoxicity); format: cell-based; conditions: U-87MG human glioblastoma cells
In short: as §1

T1 sequence (P27986 whole entry): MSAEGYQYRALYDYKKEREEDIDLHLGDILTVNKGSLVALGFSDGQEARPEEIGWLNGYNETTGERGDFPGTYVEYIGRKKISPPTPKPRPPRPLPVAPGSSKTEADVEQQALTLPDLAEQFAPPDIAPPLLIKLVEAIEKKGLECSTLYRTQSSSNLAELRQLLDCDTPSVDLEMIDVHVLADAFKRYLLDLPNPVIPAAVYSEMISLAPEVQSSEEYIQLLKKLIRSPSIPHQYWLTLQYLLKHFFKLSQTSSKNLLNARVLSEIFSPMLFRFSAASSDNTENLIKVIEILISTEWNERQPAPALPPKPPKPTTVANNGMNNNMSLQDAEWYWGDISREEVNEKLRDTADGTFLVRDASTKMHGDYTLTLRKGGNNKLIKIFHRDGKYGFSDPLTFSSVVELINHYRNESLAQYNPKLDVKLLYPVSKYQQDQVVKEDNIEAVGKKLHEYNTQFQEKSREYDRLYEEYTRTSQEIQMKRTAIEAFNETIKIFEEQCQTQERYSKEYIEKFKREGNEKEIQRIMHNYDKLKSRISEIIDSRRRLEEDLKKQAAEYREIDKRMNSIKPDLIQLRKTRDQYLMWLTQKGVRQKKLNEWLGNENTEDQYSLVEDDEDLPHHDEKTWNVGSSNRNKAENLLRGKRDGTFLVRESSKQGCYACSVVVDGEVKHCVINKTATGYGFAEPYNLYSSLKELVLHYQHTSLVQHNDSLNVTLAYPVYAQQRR
T1 sequence (P42336 whole entry): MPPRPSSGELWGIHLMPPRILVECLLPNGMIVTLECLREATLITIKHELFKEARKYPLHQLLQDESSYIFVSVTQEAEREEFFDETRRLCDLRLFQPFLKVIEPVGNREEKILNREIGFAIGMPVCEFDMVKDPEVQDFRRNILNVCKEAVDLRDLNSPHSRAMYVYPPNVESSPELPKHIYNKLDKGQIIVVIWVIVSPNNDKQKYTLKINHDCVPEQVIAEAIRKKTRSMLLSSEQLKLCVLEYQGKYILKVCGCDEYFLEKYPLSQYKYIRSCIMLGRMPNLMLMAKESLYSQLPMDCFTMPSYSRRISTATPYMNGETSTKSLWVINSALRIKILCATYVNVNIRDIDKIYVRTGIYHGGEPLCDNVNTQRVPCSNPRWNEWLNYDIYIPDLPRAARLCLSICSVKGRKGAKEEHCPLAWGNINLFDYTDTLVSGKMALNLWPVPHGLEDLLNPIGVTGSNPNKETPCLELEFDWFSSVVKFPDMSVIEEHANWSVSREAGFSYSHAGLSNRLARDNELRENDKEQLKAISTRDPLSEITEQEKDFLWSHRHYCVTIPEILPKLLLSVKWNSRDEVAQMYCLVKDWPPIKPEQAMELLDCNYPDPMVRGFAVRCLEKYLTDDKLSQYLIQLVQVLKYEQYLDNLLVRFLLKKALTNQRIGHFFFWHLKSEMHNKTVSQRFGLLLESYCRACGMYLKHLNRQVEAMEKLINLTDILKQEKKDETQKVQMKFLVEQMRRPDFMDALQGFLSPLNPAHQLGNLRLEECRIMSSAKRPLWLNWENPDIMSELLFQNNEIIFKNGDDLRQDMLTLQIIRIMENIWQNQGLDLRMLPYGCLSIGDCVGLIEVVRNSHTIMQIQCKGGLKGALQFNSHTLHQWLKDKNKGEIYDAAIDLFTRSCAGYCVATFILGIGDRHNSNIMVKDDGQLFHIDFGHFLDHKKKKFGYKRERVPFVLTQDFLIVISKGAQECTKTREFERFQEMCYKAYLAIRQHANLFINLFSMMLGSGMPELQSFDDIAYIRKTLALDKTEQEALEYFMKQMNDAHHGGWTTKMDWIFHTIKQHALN

| Structure (SMILES) | EC50 [1] [µM] | EC50 [2] [µM] | EC50 [3] [µM] | EC50 [4] [µM] | IC50 [5] [µM] | EC50 [6] [µM] |
| --- | --- | --- | --- | --- | --- | --- |
| CCc1ncnc(-c2ccnc(C(C)(C)C)c2)c1C#Cc1cnc(C)c(NS(C)(=O)=O)c1 [Example 75, N-{5-[4-(2-tert-Butyl-pyridin-4-yl)-6-ethyl-pyrimidin-5-ylethynyl]-2-methyl-pyridin-3-yl}-methanesulfonamide] | 0.079 | 0.2 | 0.169 | 0.143 | 0.001 | 0.449 |
| CCc1ncnc(-c2ccnc(OC)c2)c1C#Cc1cnc(C)c(NS(C)(=O)=O)c1 [Example 76, N-{5-[4-Ethyl-6-(2-methoxy-pyridin-4-yl)-pyrimidin-5-ylethynyl]-2-methyl-pyridin-3-yl}-methanesulfonamide] | 0.093 | 0.207 | 0.356 | 0.148 | 0.00091 | 0.466 |
| CCc1ncnc(-c2ccc(CN)cc2)c1C#Cc1cnc(C)c(NS(C)(=O)=O)c1 [Example 78, N-{5-[4-(4-Aminomethyl-phenyl)-6-ethyl-pyrimidin-5-ylethynyl]-2-methyl-pyridin-3-yl}-methanesulfonamide] | 0.549 | 2.41 | 0.524 | 0.24 | 0.004 | 0.892 |
| CCc1ncnc(-c2ccnc(C)c2)c1C#Cc1cnc(C)c(NS(=O)(=O)c2ccccc2)c1 [Example 83, N-{5-[4-Ethyl-6-(2-methyl-pyridin-4-yl)-pyrimidin-5-ylethynyl]-2-methyl-pyridin-3-yl}-benzenesulfonamide] | 0.029 | 0.057 | 0.103 | 0.086 | 0.00065 | 0.227 |
| CCc1ncnc(-c2ccnc(C)c2)c1C#Cc1cnc(C)c(NS(=O)(=O)c2ccc(Cl)cc2)c1 [Example 85, 4-Chloro-N-{5-[4-ethyl-6-(2-methyl-pyridin-4-yl)-pyrimidin-5-ylethynyl]-2-methyl-pyridin-3-yl}-benzenesulfonamide] | 0.088 | 0.352 | 0.302 | 0.499 | 0.001 | 0.98 |
| CCc1ncnc(-c2ccnc(C)c2)c1C#Cc1cnc(C)c(NS(=O)(=O)c2ccc(C)cc2)c1 [Example 86, N-{5-[4-Ethyl-6-(2-methyl-pyridin-4-yl)-pyrimidin-5-ylethynyl]-2-methyl-pyridin-3-yl}-4-methyl-benzenesulfonamide] | 0.056 | 0.208 | 0.302 | 0.492 | 0.001 | 0.697 |
| CCc1ncnc(-c2ccnc(C)c2)c1C#Cc1cnc(C)c(NS(=O)(=O)c2ccc(OC)cc2)c1 [Example 87, N-{5-[4-Ethyl-6-(2-methyl-pyridin-4-yl)-pyrimidin-5-ylethynyl]-2-methyl-pyridin-3-yl}-4-methoxy-benzenesulfonamide] | 0.372 | 0.24 | 0.381 | 0.505 | 0.005 | 0.887 |
| CCc1ccccc1S(=O)(=O)Nc1cc(C#Cc2c(CC)ncnc2-c2ccnc(C)c2)cnc1C [Example 88, 2-Ethyl-N-{5-[4-ethyl-6-(2-methyl-pyridin-4-yl)-pyrimidin-5-ylethynyl]-2-methyl-pyridin-3-yl}-benzenesulfonamide] | 0.065 | 0.14 | 0.175 | 0.33 | 0.009 | 0.704 |
| CCc1ncnc(-c2ccnc(C)c2)c1C#Cc1cnc(C)c(NS(=O)(=O)c2ccccc2C)c1 [Example 89, N-{5-[4-Ethyl-6-(2-methyl-pyridin-4-yl)-pyrimidin-5-ylethynyl]-2-methyl-pyridin-3-yl}-2-methyl-benzenesulfonamide] | 0.05 | 0.319 | 0.198 | 0.524 | 0.00088 | 0.827 |
| CCc1ncnc(-c2ccnc(C)c2)c1C#Cc1cnc(C)c(NS(=O)(=O)c2cccnc2)c1 [Example 91, Pyridine-3-sulfonic acid {5-[4-ethyl-6-(2-methyl-pyridin-4-yl)-pyrimidin-5-ylethynyl]-2-methyl-pyridin-3-yl}-amide] | 0.137 | 0.799 | 0.206 | 0.164 | 0.00039 | 0.476 |
| CCc1ncnc(-c2ccnc(C)c2)c1C#Cc1cnc(C)c(NS(=O)(=O)c2ccc(C)cc2C)c1 [Example 92, N-{5-[4-Ethyl-6-(2-methyl-pyridin-4-yl)-pyrimidin-5-ylethynyl]-2-methyl-pyridin-3-yl}-2,4-dimethyl-benzenesulfonamide] | 0.228 | 0.365 | 0.483 | 0.986 | 0.007 | 0.983 |
| CCc1ncnc(-c2ccnc(C)c2)c1C#Cc1cnc(C)c(NS(=O)(=O)c2cn(C)cn2)c1 [Example 93, 1-Methyl-1H-imidazole-4-sulfonic acid {5-[4-ethyl-6-(2-methyl-pyridin-4-yl)-pyrimidin-5-ylethynyl]-2-methyl-pyridin-3-yl}-amide] | 0.194 | 0.293 | 0.406 | 0.149 | 0.001 | 0.562 |
| CCc1ncnc(-c2ccnc(C)c2)c1C#Cc1cnc(C)c(NS(=O)(=O)c2ccc(CNC(C)=O)cc2)c1 [Example 94, N-(4-{5-[4-Ethyl-6-(2-methyl-pyridin-4-yl)-pyrimidin-5-ylethynyl]-2-methyl-pyridin-3-ylsulfamoyl}-benzyl)-acetamide] | 0.58 | 2.58 | 0.644 | 0.514 | 0.001 | 2.32 |
| Cc1cc(-c2ncnc(C)c2C#Cc2cncc(NS(C)(=O)=O)c2)ccn1 [Example 95, N-{5-[4-Methyl-6-(2-methyl-pyridin-4-yl)-pyrimidin-5-ylethynyl]-pyridin-3-yl}-methanesulfonamide] | 0.407 | 2.02 | 1.65 | 0.483 | 0.002 | 0.391 |
